The values below are quoted from earlier work in US5585244A, “Detection of retinoid X receptor subtype γ proteins” (Ligand Pharmaceuticals Incorporated, priority 1994, dated 1996).

Series [1] addresses retinoid X receptors (RXRs).
The target in series [2] is retinoic acid receptors (RARs). The settings on record: 9cRA and tRA bind with equally high affinity.
Series [3] deals with retinoid X receptors (RXRs). Conditions: versus tritiated 9cRA.

As for `CC1=C(/C=C/C(C)=C\C=C\C(C)=C\C(=O)O)C(C)(C)CCC1` [9cRA, 9-cis retinoic acid], the results for the Kd in series [1] and in series [2] were 1 to 2 nM and 0.2 to 0.8 nM, respectively.
Regarding `CC1=C(/C=C/C(C)=C/C=C/C(C)=C/C(=O)O)C(C)(C)CCC1` [tRA, all-trans retinoic acid], in series [3], the IC50 (as a rule, the concentration at which inhibition is half-maximal) was more than 50000 nM. For the same compound, the Kd – broadly, the concentration at which binding is half-saturated – in series [2] is 0.2 to 0.8 nM.
